Patent publication US20230330109A1, “COMPOUND FOR PREVENTING AND TREATING LIVER DISEASES AND PHARMACEUTICAL USE THEREOF” (CHENGDU BIOBEL COMPANY LIMITED, priority 2020, published 2023)
Where a name gives a salt, the structure may show the parent alone.

What was measured:
Assay type in all cases: in vivo
[1] = tested on: male C57BL/6N mice; assay: Serum biochemical indexes in MCD diet FLD mice (Experimental Example 1); design: AST / ALT / ALP: unit not given here; conditions: for decrease rate of ALP / decrease rate of ALT / decrease rate of AST: compared with the model group, dosages as in Table 1; for ALP / ALT / AST: serum, MCD diet mice, drug in diet for 20 days, dosage 300 mg/kg/d (I-1, HTD1801) or 150 mg/kg/d (nor-UDCA, berberine hydrochloride)
Text: (§1) 48 male C57BL/6N mice (8-week-old) were chosen, in which 8 mice were randomly divided into the blank group, fed with normal diet, while the other 40 mice were all subjected to establishing models. There was an adaptation period of 6 days before modeling. Then, mice were fed with the mixture of MCD and MCS (TROPHIC Animal Feed High-Tech Co. Ltd, Nantong, Jiangsu, China, TP3005GS, high-fat feed) in a ratio of 1:2, 1:1 and 2:1, and each ratio of diet was given to the mice for two days in the order of 1:2, 1:1 and 2:1. After that, mice were given MCD feed for 28 days (TROPHIC Animal Feed High-Tech Co. Ltd, Nantong, Jiangsu, China, TP3005G, methionine- and choline-deficient diet). On the 28th day, mice were randomly divided into five groups, namely model group, compound I-1 group, norUDCA group, berberine hydrochloride group, and HTD1801 group, eight mice for each group. After grouping, each treatment group was further fed customized MCD diet containing drugs for 20 days, while the model group was fed the same diet as the previous. All groups were fed the isocaloric diet. After the last administration on the 21st day, the mice were fasted for 16 h (but free access to water) and weighed. Then, blood was taken from the femoral artery and centrifuged to separate the serum, which was stored at low temperature of −30° C., ready for testing the biochemical indexes of the serum. In addition, the liver was taken, and two pieces of left lobe were taken for each mouse, which were placed in 10% neutral formalin solution, respectively. After treatment, liver histopathological examination was performed.

[2] = tested on: male C57BL/6N mice; assay: Liver histopathological examination in MCD diet FLD mice (Experimental Example 1); design: scale not given here; conditions: liver histopathology, dosage 300 mg/kg (I-1, HTD1801) or 150 mg/kg (nor-UDCA, berberine hydrochloride)
Text: as §1

[3] = tested on: male C57BL/6N mice; assay: Hepatic fat staining in MCD diet FLD mice (Experimental Example 1); conditions: dosage 300 mg/kg (I-1, HTD1801) or 150 mg/kg (nor-UDCA, berberine hydrochloride)
Text: as §1

[4] = tested on: male Wistar rats; assay: Thioacetamide-induced hepatic fibrosis/cirrhosis in rats, Sirius Red fibrosis area; conditions: for decrease rate of fibrosis area: compared with the rat cirrhosis model group, dosages as in Table 4; for Hepatic fibrosis area (%): thioacetamide rats, oral, Sirius Red, dosage 160 mg/kg (I-1, HTD1801) or 80 mg/kg (nor-UDCA, berberine hydrochloride)
Text: 60 male Wistar rats (weighing 180-220 g) were divided into 6 groups, with 10 rats in each group, and the rats were provided by Chengdu Dossy Experimental Animal Co., Ltd. In the experiment, the compound of the present invention and the positive control drug nor-UDCA were first ground in a proper amount of Tween, and then diluted to the pre-determined concentration with 0.5% carboxymethyl cellulose (CMC) sodium.
The rat liver fibrosis model was established by inducing with thioacetamide. Rats were intraperitoneally injected with thioacetamide at a dose of 200 mg/kg, three times a week, for 12 weeks. Four weeks after induction with thioacetamide, the compound of the present invention was orally administered to the test groups, while the blank group and the model group were given the same amount of CMC suspension. Among them, every morning, rats in each test group were given 160 mg/kg of compound I-1, 80 mg/kg of nor-UDCA, 80 mg/kg of berberine hydrochloride, and 160 mg/kg of positive control HTD1801. After experiment, all rats were euthanized, and their livers were taken out.
The liver tissue was fixed with 10% formaldehyde solution and embedded in paraffin. The fixed liver tissue was sectioned with a thickness of about […], and then stained with Hematoxylin-Eosin (HE) and Sirius Red. Sirius Red staining was used for morphological analysis and to determine the percentage of liver tissue affected by its fibrosis. The image of the section was collected by using the microscopic imaging system. In order to make the results more accurate, 15 positive visual fields of Sirius Red staining were randomly selected from each slice to calculate the proportion of liver fibrosis area, which was used in statistical analysis.

| SMILES | decrease rate of ALP [1] | decrease rate of ALT [1] | decrease rate of AST [1] | ALP [1] | ALT [1] | AST [1] | Score Edema [2] | Score Inflammation cell infiltration [2] | Score Necrosis [2] | Score Steatosis [2] | Hepatic fat staining Scores [3] | decrease rate of fibrosis area [4] | Hepatic fibrosis area (%) [4] |
| --- | --- | --- | --- | --- | --- | --- | --- | --- | --- | --- | --- | --- | --- |
| COc1ccc2cc3[n+](cc2c1OC)CCc1cc2c(cc1-3)OCO2 [Berberine hydrochloride, berberine hydrochloride] | 15.10% | 12.09% | 1.86% | 193.4 ± 32.9 | 942.4 ± 64.5 | 768.4 ± 38.1 | 1.8 | 1.9 | 2.1 | 2.2 | 1.9 | 15.17% | 15.14 ± 3.67% |
| COc1ccc2cc3[n+](cc2c1OC)CCc1cc2c(cc1-3)OCO2.C[C@H](CCC(=O)[O-])[C@H]1CC[C@H]2[C@@H]3[C@@H](O)C[C@@H]4C[C@H](O)CC[C@]4(C)[C@H]3CC[C@]12C [HTD1801] | – | – | – | 188.8 ± 21.3 | 303.0 ± 99.1 | 409.9 ± 51.7 | 0.7 | 1.3 | 0.8 | 1.3 | 1.1 | – | 9.39 ± 1.45% |
| C[C@H](CC(=O)O)[C@H]1CC[C@H]2[C@@H]3[C@@H](O)C[C@@H]4C[C@H](O)CC[C@]4(C)[C@H]3CC[C@]12C [nor-UDCA, norursodeoxycholic acid] | 12.95% | 21.82% | 20.67% | 198.3 ± 94.5 | 761.8 ± 374.2 | 683.4 ± 253.7 | 1.6 | 2.1 | 2.0 | 2.5 | 1.7 | 6.18% | 16.79 ± 5.48% |
